These results are taken from PMC6627609, “Targeting Quorum Sensing: High-Throughput Screening to Identify Novel LsrK Inhibitors” (International Journal of Molecular Sciences, 2019).

Structures can show the parent of a compound that is named as a salt.

Chain of LsrK (Q8ZKQ6 whole entry): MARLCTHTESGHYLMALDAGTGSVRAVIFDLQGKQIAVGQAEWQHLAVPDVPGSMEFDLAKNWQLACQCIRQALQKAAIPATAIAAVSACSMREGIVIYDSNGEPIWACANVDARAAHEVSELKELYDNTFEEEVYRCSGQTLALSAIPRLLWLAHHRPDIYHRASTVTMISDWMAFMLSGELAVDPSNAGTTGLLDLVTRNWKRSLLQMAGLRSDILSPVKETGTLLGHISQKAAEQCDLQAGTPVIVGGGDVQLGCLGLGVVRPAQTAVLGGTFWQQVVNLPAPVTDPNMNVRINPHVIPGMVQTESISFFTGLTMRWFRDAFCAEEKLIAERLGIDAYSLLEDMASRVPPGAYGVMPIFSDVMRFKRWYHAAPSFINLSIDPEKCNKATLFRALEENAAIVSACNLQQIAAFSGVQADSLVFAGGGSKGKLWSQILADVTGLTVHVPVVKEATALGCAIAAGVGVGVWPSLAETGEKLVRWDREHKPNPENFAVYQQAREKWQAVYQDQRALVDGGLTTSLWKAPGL

The first test has as its target LsrK (Salmonella typhimurium, UniProt Q8ZKQ6). Nature of the test: biochemical. Format: biochemical, S. typhimurium.
Conditions: not given
One may read the inhibition as the drop in the measured response relative to a control, in per cent. In the case of `COc1ccc2c(C)cc(=O)oc2c1` [H[…] ETHER], the inhibition at 50 µM was found to be 0%.

Turning to `CCN(CC)C(=S)SSC(=S)N(CC)CC`, the inhibition at 50 µM was 154%.

With `Cc1nc(C)c(Cl)c(O)c1Cl` [CLOPIDOL], the inhibition at 50 µM worked out at 2%.

Consider `CC[C@H]1OC(=O)[C@H](C)[C@@H](O[C@H]2C[C@@](C)(OC)[C@@H](O)[C@H](C)O2)[C@H](C)[C@@H](O[C@@H]2O[C@H](C)C[C@H](N(C)C)[C@H]2O)[C@](C)(O)C[C@@H](C)C(=O)[C@H](C)[C@@H](O)[C@]1(C)O` [ERYTHROMYCIN], for which the inhibition at 50 µM came out at 0%.

On to `[H]/N=C(\N/C(=N/[H])Nc1ccc(Cl)cc1)NC(C)C` [CHLOROGUANIDE HYDROCHLORIDE], for which the inhibition at 50 µM is 1%.

As usually defined, the IC50 is the concentration that gives 50% inhibition. A low value points to inhibition by little substance. Consider `O=C(O)c1cc(O)c(=O)c2c(O)c(O)ccc2c1` [7-DESHYDROXYPYROGALLIN-4-CARBOXYLIC ACID], for which the IC50 is 7 µM and the inhibition at 50 µM was found to be 107%.

On to `O=C(c1ccc(OCCN2CCCCC2)cc1)c1c(-c2ccc(O)cc2)sc2cc(O)ccc12` [RALOXIFENE HYDROCHLORIDE], for which the inhibition at 50 µM is 0%.

As to `C[C@]12CC[C@H]3[C@@H](CCC4=CC(=O)CC[C@@]43C)[C@@H]1CC[C@H]2O` [EPITESTOSTERONE], the inhibition at 50 µM is 0%.

For `O=C1C(CC[S+]([O-])c2ccccc2)C(=O)N(c2ccccc2)N1c1ccccc1` (stereo not shown) [SULFINPYRAZONE], the inhibition at 50 µM is 129%.

Regarding `O=c1cc(-c2ccc(O)cc2)oc2cc(O[C@@H]3O[C@H](CO)[C@@H](O)[C@H](O)[C@H]3O[C@@H]3OC[C@](O)(CO)[C@H]3O)cc(O)c12` [APIIN], the inhibition at 50 µM was determined as 1%.

Turning to `COc1cc([C@@H]2c3cc4c(cc3[C@@H](O[C@@H]3O[C@@H]5CO[C@@H](C)O[C@H]5[C@H](O)[C@H]3O)[C@H]3COC(=O)[C@H]23)OCO4)cc(OC)c1O` [ETOPOSIDE], the inhibition at 50 µM is 1%.

Consider `CCCC(CCC)C(=O)O` [VALPROATE SODIUM], for which the inhibition at 50 µM is 0%.

In the case of `CN1CCC(=C2c3ccccc3Sc3ccccc32)CC1` [PIMETHIXENE MALEATE], the inhibition at 50 µM amounted to 0%.

For the compound `NCCC[C@H](N)C(=O)O` [ORNITHINE], the inhibition at 50 µM was determined as 1%.

For the compound `CN(C(=O)C(Cl)Cl)c1ccc(OC(=O)c2ccco2)cc1` [DILOXANIDE FUROATE], the inhibition at 50 µM was determined as 4%.

As for `C[C@H]1O[C@@H](n2cc(F)c(=O)[nH]c2=O)[C@H](O)[C@@H]1O` [DOXIFLURIDINE], the inhibition at 50 µM was 1%.

On to `CN(C)CCc1c[nH]c2ccc(Cn3cncn3)cc12` [RIZATRIPTAN BENZOATE], for which the inhibition at 50 µM worked out at 1%.

For the compound `O=C1CN(/N=C/c2ccc(-c3ccc([N+](=O)[O-])cc3)o2)C(O)=N1` [DANTROLENE SODIUM], the inhibition at 50 µM was 3%.

`O=C(O)c1cc(/N=N/c2ccc(S(=O)(=O)Nc3ccccn3)cc2)ccc1O` [SULFASALAZINE]: the inhibition at 50 µM stood at 5%.

For the compound `COc1cccc(O)c1O` [3-METHOXYCATECHOL], the inhibition at 50 µM was 118%.

Regarding `C[C@H]1[C@@H](O)O[C@@H]2O[C@@]3(C)CC[C@H]4[C@H](C)CC[C@@H]1[C@@]24OO3` [ARTENIMOL], the inhibition at 50 µM amounted to 0%.

As for `COC1(C)CCC2OC2(C)CCC2C1CC2(C)C` (stereo not shown) [2-METHOXY-5 (6)EPOXY-TETRAHYDROCARYOPHYLLENE], the inhibition at 50 µM was 0%.

For the compound `c1cncc([C@@H]2CCCCN2)c1` [ANABASINE HYDROCHLORIDE], the inhibition at 50 µM came to 2%.

Turning to `N=C(N)NC(=O)c1nc(Cl)c(N)nc1N` [AMILORIDE HYDROCHLORIDE], the inhibition at 50 µM worked out at 1%.

With `COc1cc(O)c(C(C)=O)c(OC)c1` [XANTHOXYLIN], the inhibition at 50 µM was determined as 0%.

Regarding `CCCCNc1cc(C(=O)O)cc(S(N)(=O)=O)c1Oc1ccccc1` [BUMETANIDE], the inhibition at 50 µM stood at 1%.

As for `OC[C@H]1O[C@@H](Oc2ccc(O)cc2)[C@H](O)[C@@H](O)[C@@H]1O` [ARBUTIN], the inhibition at 50 µM was found to be 2%.

`Cc1cccc2c3c(ccc12)C1=C(C(=O)C3=O)[C@@H](C)CO1` [DIHYDROTANSHINONE I]: the inhibition at 50 µM is 115%.

With `CC(C)c1cccc(C(C)C)c1O` [PROPOFOL], the inhibition at 50 µM stood at 7%.

Regarding `C=C1c2cccc(O)c2C(=O)C2=C(O)[C@]3(O)C(=O)C(C(N)=O)=C(O)[C@@H](N(C)C)[C@@H]3[C@@H](O)[C@H]12` [METHACYCLINE HYDROCHLORIDE], the inhibition at 50 µM came to 97%.

With `Nc1ncn([C@@H]2O[C@H](CO)[C@@H](O)[C@H]2O)c(=O)n1` [AZACITIDINE], the inhibition at 50 µM worked out at 9%.

In the case of `NCCCNCCCCNCCCN` [SPERMINE], the inhibition at 50 µM amounted to 2%.

Consider `C[C@H](CCC(=O)O)[C@H]1CC[C@H]2[C@@H]3[C@H](O)C[C@@H]4C[C@H](O)CC[C@]4(C)[C@H]3C[C@H](O)[C@]12C` [CHOLIC ACID], for which the inhibition at 50 µM amounted to 0%.

For `COc1ccc2c(c1)OC[C@@H](Cc1ccc(OC)c(OC)c1)[C@H]2O`, the inhibition at 50 µM was found to be 2%.

Regarding `CN(C)CCC(c1ccccc1)c1ccccn1` (stereo not shown) [PHENIRAMINE MALEATE], the inhibition at 50 µM stood at 3%.

On to `Cc1cc(O)c(C=O)c2c1C(=O)Oc1c(C)c(O)c3c(c1O2)C(O)OC3=O` (stereo not shown) [[…]], for which the inhibition at 50 µM was 145%.

In the case of `C=C1CC[C@H](O)C/C1=C/C=C1\CCC[C@]2(C)[C@@H]([C@H](C)CCCC(C)C)CC[C@@H]12` [CHOLECALCIFEROL], the inhibition at 50 µM worked out at 90%.

For `O=C(O)CCC1NCC2CC1CN1CCCCC21` (stereo not shown) [LUPANYL ACID HYDROCHLORIDE], the inhibition at 50 µM amounted to 1%.

In the case of `Oc1cc(O)c2c(c1)O[C@H](c1cc(O)c(O)c(O)c1)[C@H](O)C2` [EPIGALLOCATECHIN], the inhibition at 50 µM was 89%.

With `Cc1ccccc1N1C(=O)c2cc(S(N)(=O)=O)c(Cl)cc2NC1C` (stereo not shown) [METOLAZONE], the inhibition at 50 µM turned out to be 1%.

As for `O=c1c(O)cccc2cc(O)c(O)c(O)c12` [PURPUROGALLIN], the inhibition at 50 µM came out at 89%.

As to `CC1(C)O[C@@H]2[C@@H](CO[C@@]3(COS(N)(=O)=O)OC(C)(C)O[C@@H]23)O1` [TOPIRAMATE], the inhibition at 50 µM amounted to 1%.

On to `CC(C)OC(=O)C(C)(C)Oc1ccc(C(=O)c2ccc(Cl)cc2)cc1` [FENOFIBRATE], for which the inhibition at 50 µM is 1%.

With `CN1CCC(=C2c3ccccc3CC(=O)c3sccc32)CC1` [KETOTIFEN FUMARATE], the inhibition at 50 µM was 1%.

As to `COC1=C(OC)C(=O)C(C/C=C(\C)CC/C=C(\C)CC/C=C(\C)CC/C=C(\C)CC/C=C(\C)CC/C=C(\C)CC/C=C(\C)CC/C=C(\C)CC/C=C(\C)CCC=C(C)C)=C(C)C1=O` [UBIDECARENEONE], the inhibition at 50 µM was 1%.

With `Oc1ccc(Cl)cc1` [PARACHLOROPHENOL], the inhibition at 50 µM is 1%.

Turning to `C#C[C@]1(O)CC[C@H]2[C@@H]3CCC4=C(CCC(=O)C4)[C@H]3CC[C@@]21C` [NORETHYNODREL], the inhibition at 50 µM was determined as 1%.

As to `CO[C@@H]1[C@@H](OC(N)=O)[C@@H](O)[C@H](Oc2ccc3c(O)c(NC(=O)c4ccc(O)c(CC=C(C)C)c4)c(=O)oc3c2C)OC1(C)C` [NOVOBIOCIN SODIUM], the inhibition at 50 µM is 0%.

Consider `Cc1ccc(S(=O)(=O)NC(=O)NN2CC3CCCC3C2)cc1` (stereo not shown) [GLICLAZIDE], for which the inhibition at 50 µM was 1%.

`CC(C)(C)CC(C)(C)c1ccc(O)c(Cc2ccc(Cl)cc2Cl)c1` [CLOFOCTOL]: the inhibition at 50 µM was determined as 2%.

Consider `O=C1NC(=O)C(=O)C(=O)N1` [ALLOXAN], for which the inhibition at 50 µM turned out to be 18%.

Turning to `CC(=O)NS(=O)(=O)c1ccc(N)cc1` [SULFACETAMIDE], the inhibition at 50 µM worked out at 0%.

Consider `O=c1c(O)c(-c2ccc(O)cc2)oc2cc(O)cc(O)c12` [KAEMPFEROL], for which the inhibition at 50 µM turned out to be 0%.

For the compound `COc1ccc2c(c1)OC/C(=C\c1ccc(OC)c(O)c1)C2=O` [SAPPANONE A DIMETHYL ETHER], the inhibition at 50 µM came out at 2%.

Consider `CC[N+](CC)(CC(=O)Nc1c(C)cccc1C)Cc1ccccc1` [DENATONIUM BENZOATE], for which the inhibition at 50 µM amounted to 1%.

For the compound `CN1C[C@H](CNC(=O)OCc2ccccc2)C[C@@H]2c3cccc4c3c(cn4C)C[C@H]21` [METERGOLINE], the inhibition at 50 µM was 3%.

On to `COC(=O)c1cc(O)c(=O)c2c(O)c(O)ccc2c1` [METHYL 7-DESHYDROXYPYROGALLIN-4-CARBOXYLATE], for which the inhibition at 50 µM was determined as 112%.

Staying with this test, now noted: 50 µM.
With `OC[C@H]1O[C@H](OCC2O[C@@H](O)[C@H](O)[C@@H](O)[C@@H]2O)[C@H](O)[C@@H](O)[C@H]1O` (stereo partly shown) [MELIBIOSE], the “Inhibition (%)” value turned out to be 3.

Turning to `CC(=O)O[C@H]1C[C@@H](OC(C)=O)C(C)(C)[C@@H]2C[C@@H](OC(C)=O)[C@@]3(C)C4=CC(=O)O[C@@H](c5ccoc5)[C@]4(C)CC[C@@H]3[C@@]12C` [DEOXYKHIVORIN], the “Inhibition (%)” value is 1.

As to MECLOCYCLINE SULFOSALICYLATE, the “Inhibition (%)” value came out at 93.

Regarding `O=c1cccc2n1C[C@@H]1C[C@H]2CN2CCCC[C@H]12.[O-][Cl+3]([O-])([O-])O` [THERMOPSINE PERCHLORATE], the “Inhibition (%)” value was 0.

Take `COc1cc2nc(N(C)CCCNC(=O)C3CCCO3)nc(N)c2cc1OC` (stereo not shown) [ALFLUZOSIN]: the “Inhibition (%)” value is 1.

On to `COc1ccc2[nH]c3c(c2c1)CCN=C3C` [6-METHOXYHARMALAN], for which the “Inhibition (%)” value is on record as 2.

Consider `CCOc1cccc(C(=O)c2ccc(O)c(O)c2O)c1`, for which the “Inhibition (%)” value came out at 11.

Consider `CC(=O)Oc1cccc(C)c1` [meta-CRESYL ACETATE], for which the “Inhibition (%)” value is listed as 1.

Consider `COc1ccc(-c2cc(=O)c3cc(OC)ccc3o2)cc1` [6.4'-DIMETHOXYFLAVONE], for which the “Inhibition (%)” value is given as 2.

On to `COc1ccc([C@@H]2CC(=O)c3c(O)cc(O[C@@H]4O[C@H](CO[C@@H]5O[C@@H](C)[C@H](O)[C@@H](O)[C@H]5O)[C@@H](O)[C@H](O)[C@H]4O)cc3O2)cc1O` [HESPERIDIN], for which the “Inhibition (%)” value is recorded as 1.

As for `CC(=O)O[C@H]1CC[C@]2(C)[C@H]3CC=C4[C@@H]5CC(C)(C)CC[C@]5(C(=O)O)CC[C@@]4(C)[C@]3(C)CC[C@H]2C1(C)C` [OLEANOLIC ACID ACETATE], the “Inhibition (%)” value amounted to 14.

`OC[C@H]1O[C@@H](O[C@H]2[C@H](O)[C@@H](O)[C@H](O)O[C@@H]2CO)[C@H](O)[C@@H](O)[C@@H]1O` [CELLOBIOSE (D[+])]: the “Inhibition (%)” value is 0.
